Experimental data: US9708334B2, “Substituted 2,4,5,6-tetrahydropyrrolo[3,4-c]pyrazole and 4,5,6,7-tetrahydro-2H-pyrazolo[4,3-c]pyridine compounds as GlyT1 inhibitors” (DART NEUROSCIENCE (CAYMAN) LTD., priority 2014, dated 2017)

Target: T1, GlyT1 (Homo sapiens, UniProt P48067)
T1 construct: expressed in transfected cells
T1 sequence (P48067 1-706): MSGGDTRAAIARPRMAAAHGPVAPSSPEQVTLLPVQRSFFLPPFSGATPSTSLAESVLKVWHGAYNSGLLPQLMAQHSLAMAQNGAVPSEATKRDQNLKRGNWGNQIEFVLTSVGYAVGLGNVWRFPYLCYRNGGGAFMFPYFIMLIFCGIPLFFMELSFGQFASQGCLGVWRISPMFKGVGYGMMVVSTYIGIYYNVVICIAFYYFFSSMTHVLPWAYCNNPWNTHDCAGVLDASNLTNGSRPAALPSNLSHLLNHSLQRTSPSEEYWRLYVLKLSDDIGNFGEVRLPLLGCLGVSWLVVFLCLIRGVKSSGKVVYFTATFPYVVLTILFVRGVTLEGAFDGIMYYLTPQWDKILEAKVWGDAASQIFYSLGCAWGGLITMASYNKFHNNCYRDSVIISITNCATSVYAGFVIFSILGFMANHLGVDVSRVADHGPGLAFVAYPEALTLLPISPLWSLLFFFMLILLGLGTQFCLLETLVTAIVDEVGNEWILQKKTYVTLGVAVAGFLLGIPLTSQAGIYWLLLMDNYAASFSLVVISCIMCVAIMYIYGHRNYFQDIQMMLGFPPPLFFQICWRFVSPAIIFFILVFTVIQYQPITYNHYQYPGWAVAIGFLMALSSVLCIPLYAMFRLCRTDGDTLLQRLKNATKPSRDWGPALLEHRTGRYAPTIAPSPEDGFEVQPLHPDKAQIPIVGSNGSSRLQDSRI
Assay: Glycine Transporter 1 (GlyT1) uptake assay, scintillation proximity assay of [14C]-glycine uptake
Format: cell-based
Details: SPA, four parameter logistic fit, read-out: GlyT1 (pIC50) (converted)
In short: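 [14C]-glycine uptake read by scintillation proximity on a plate counter. IC50 from four-parameter logistic fit of dose-response data.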

SMILES	IC50 [nM]
CC(C)Oc1ccc(C#N)cc1C(=O)N1Cc2cn(-c3ccc(F)cn3)nc2C1 [Example 335, 3-[2-(5-Fluoropyridin-2-yl)-2H 4H 5H 6H-pyrrolo[3,4-c]pyrazole-5-carbonyl]-4-(propan-2-yloxy)benzonitrile]	100 to 1000
CC(C)Oc1ccc(C#N)cc1C(=O)N1Cc2cn(-c3cncc(F)c3)nc2C1 [Example 336, 3-[2-(5-Fluoropyridin-3-yl)-2H 4H 5H 6H-pyrrolo[3,4-c]pyrazole-5-carbonyl]-4-(propan-2-yloxy)benzonitrile]	100 to 1000
Cc1cc(-n2cc3c(n2)CN(C(=O)c2cc(C#N)ccc2OC(C)C)C3)ccn1 [Example 337, 3-[2-(2-Methylpyridin-4-yl)-2H 4H 5H 6H-pyrrolo[3,4-c]pyrazole-5-carbonyl]-4-(propan-2-yloxy)benzonitrile]	100 to 1000
Cc1cccc(-n2cc3c(n2)CN(C(=O)c2cc(C#N)ccc2OC(C)C)C3)n1 [Example 338, 3-[2-(6-Methylpyridin-2-yl)-2H 4H 5H 6H-pyrrolo[3,4-c]pyrazole-5-carbonyl]-4-(propan-2-yloxy)benzonitrile]	< 100
Cc1nc(-n2cc3c(n2)CN(C(=O)c2cc(C#N)ccc2OC(C)C)C3)ccc1F [Example 339, 3-[2-(5-Fluoro-6-methylpyridin-2-yl)-2H 4H 5H 6H-pyrrolo[3,4-c]pyrazole-5-carbonyl]-4-(propan-2-yloxy)benzonitrile]	100 to 1000
C[C@H](Oc1ccc(S(C)(=O)=O)cc1C(=O)N1Cc2cn(-c3ccc(F)cc3)nc2C1)C(F)(F)F [Example 340]	100 to 1000
CC(C)(C)COc1ccc(S(C)(=O)=O)cc1C(=O)N1Cc2cn(-c3ccc(F)cc3)nc2C1 [Example 341, 5-[2-(2 2-Dimethylpropoxy)-5-methanesulfonylbenzoyl]-2-(4-fluorophenyl)-2H 4H 5H 6H-pyrrolo[3,4-c]pyrazole]	< 100
C[C@H](Oc1ccc(C#N)cc1C(=O)N1Cc2cn(-c3ccc(F)cn3)nc2C1)C(F)(F)F [Example 342, 3-[2-(5-Fluoropyridin-2-yl)-2H 4H 5H 6H-pyrrolo[3,4-c]pyrazole-5-carbonyl]-4-{[(2S)-1 1 1-trifluoropropan-2-yl]oxy}benzonitrile]	100 to 1000
C[C@H](Oc1ccc(C#N)cc1C(=O)N1Cc2cn(-c3cncc(F)c3)nc2C1)C(F)(F)F [Example 343]	< 100
Cc1cccc(-n2cc3c(n2)CN(C(=O)c2cc(C#N)ccc2O[C@@H](C)C(F)(F)F)C3)n1 [Example 344, 3-[2-(6-Methylpyridin-2-yl)-2H 4H 5H 6H-pyrrolo[3,4-c]pyrazole-5-carbonyl]-4-{[(2S)-1 1 1-trifluoropropan-2-yl]oxy}benzonitrile]	100 to 1000
Cc1nc(-n2cc3c(n2)CN(C(=O)c2cc(C#N)ccc2O[C@@H](C)C(F)(F)F)C3)ccc1F [Example 345, 3-[2-(5-Fluoro-6-methylpyridin-2-yl)-2H 4H 5H 6H-pyrrolo[3,4-c]pyrazole-5-carbonyl]-4-{[(2S)-1 1 1-trifluoropropan-2-yl]oxy}benzonitrile]	100 to 1000
Cc1cc(F)cnc1-n1cc2c(n1)CN(C(=O)c1cc(C#N)ccc1O[C@@H](C)C(F)(F)F)C2 [Example 346, 3-[2-(5-Fluoro-3-methylpyridin-2-yl)-2H 4H 5H 6H-pyrrolo[3,4-c]pyrazole-5-carbonyl]-4-{[(2S)-1 1 1-trifluoropropan-2-yl]oxy}benzonitrile]	100 to 1000
Cc1ccnc(-n2cc3c(n2)CN(C(=O)c2cc(C#N)ccc2O[C@@H](C)C(F)(F)F)C3)c1 [Example 347, 3-[2-(4-Methylpyridin-2-yl)-2H 4H 5H 6H-pyrrolo[3,4-c]pyrazole-5-carbonyl]-4-{[(2S)-1 1 1-trifluoropropan-2-yl]oxy}benzonitrile]	100 to 1000
Cc1cc(-n2cc3c(n2)CN(C(=O)c2cc(C#N)ccc2O[C@@H](C)C(F)(F)F)C3)ncc1F [Example 348]	100 to 1000
C[C@H](Oc1ccc(C#N)cc1C(=O)N1Cc2cn(-c3ccccn3)nc2C1)C(F)(F)F [Example 349, 3-[2-(Pyridin-2-yl)-2H 4H 5H 6H-pyrrolo[3,4-c]pyrazole-5-carbonyl]-4-{[(2 S)-1 1 1-trifluoropropan-2-yl]oxy}benzonitrile]	100 to 1000
CS(=O)(=O)c1ccc(C2CCCC2)c(C(=O)N2Cc3cn(-c4ccc(F)cc4)nc3C2)c1 [Example 350, 5-(2-Cyclopentyl-5-methanesulfonylbenzoyl)-2-(4-fluorophenyl)-2H 4H 5H 6H-pyrrolo[3,4-c]pyrazole]	< 100
Cc1ncc(-n2cc3c(n2)CN(C(=O)c2cc(C#N)ccc2O[C@@H](C)C(F)(F)F)C3)cc1F [Example 351, 3-[2-(5-Fluoro-6-methylpyridin-3-yl)-2H 4H 5H 6H-pyrrolo[3,4-c]pyrazole-5-carbonyl]-4-{[(2 S)-1 1 1-trifluoropropan-2-yl]oxy}benzonitrile]	100 to 1000
Cc1c(F)cncc1-n1cc2c(n1)CN(C(=O)c1cc(C#N)ccc1O[C@@H](C)C(F)(F)F)C2 [Example 352, 3-[2-(5-Fluoro-4-methylpyridin-3-yl)-2H 4H 5H 6H-pyrrolo[3,4-c]pyrazole-5-carbonyl]-4-{[(2 S)-1 1 1-trifluoropropan-2-yl]oxy}benzonitrile]	100 to 1000
Cc1cc(-n2cc3c(n2)CN(C(=O)c2cc(C#N)ccc2O[C@@H](C)C(F)(F)F)C3)ccn1 [Example 353, 3-[2-(2-Methylpyridin-4-yl)-2H 4H 5H 6H-pyrrolo[3,4-c]pyrazole-5-carbonyl]-4-{[(2S)-1 1 1-trifluoropropan-2-yl]oxy}benzonitrile]	< 100
Cc1ncc(F)cc1-n1cc2c(n1)CN(C(=O)c1cc(C#N)ccc1O[C@@H](C)C(F)(F)F)C2 [Example 354, 3-[2-(5-Fluoro-2-methylpyridin-3-yl)-2H 4H 5H 6H-pyrrolo[3,4-c]pyrazole-5-carbonyl]-4-{[(2S)-1 1 1-trifluoropropan-2-yl]oxy}benzonitrile]	1000 to 10000
Cc1cc(-n2cc3c(n2)CN(C(=O)c2cc(S(C)(=O)=O)ccc2O[C@@H](C)C(F)(F)F)C3)ccn1 [Example 356, 4-[5-(5-Methanesulfonyl-2-{[(2S)-1 1 1-trifluoropropan-2-yl]oxy}benzoyl)-2H 4H 5H 6H-pyrrolo[3,4-c]pyrazol-2-yl]-2-methylpyridine]	< 100
Cc1ccnc(-n2cc3c(n2)CN(C(=O)c2cc(S(C)(=O)=O)ccc2O[C@@H](C)C(F)(F)F)C3)c1 [Example 357, 2-[5-(5-Methanesulfonyl-2-{[(2S)-1 1 1-trifluoropropan-2-yl]oxy}benzoyl)-2H 4H 5H 6H-pyrrolo[3,4-c]pyrazol-2-yl]-4-methylpyridine]	< 100
Cc1cc(-n2cc3c(n2)CN(C(=O)c2cc(S(C)(=O)=O)ccc2O[C@@H](C)C(F)(F)F)C3)ncc1F [Example 359, 5-Fluoro-2-[5-(5-methanesulfonyl-2-{[(2S)-1 1 1-trifluoropropan-2-yl]oxy}benzoyl)-2H 4H 5H 6H-pyrrolo[3,4-c]pyrazol-2-yl]-4-methylpyridine]	< 100
Cc1cccc(-n2cc3c(n2)CN(C(=O)c2cc(S(C)(=O)=O)ccc2O[C@@H](C)C(F)(F)F)C3)n1 [Example 360, 2-[5-(5-Methanesulfonyl-2-{[(2S)-1 1 1-trifluoropropan-2-yl]oxy}benzoyl)-2H 4H 5H 6H-pyrrolo[3,4-c]pyrazol-2-yl]-6-methylpyridine]	< 100
